# In patent US9796671B2, “Aurora kinase inhibitors” (REGENTS OF THE UNIVERSITY OF MINNESOTA, priority 2012, dated 2017):
# System: HCT116 cells
# Assay: Anchorage-independent growth (soft agar colony formation)
# Format: cell-based
# Details: 0.5 μM
# Protocol: FIGS. 3A and 3B. Compounds 1-8 suppress the anchorage-independent growth of HCT116 cells. The asterisk indicates a significant (* p<0.05, ** p<0.01) decrease in colony formation in cells treated with each compound compared with the DMSO treated control group. Two concentrations of each compound, 0.5 μM and 5 μM were tested. […] Compounds 2 and 4 had no effect.
# Tumor cells are suspended in basal medium Eagle (BME) medium and added to 0.6% agar, with different concentrations of Compound 1 in a base layer and a top layer of 0.3% agar. The cultures are maintained at 37° C. in a 5% CO2 incubator for 1 to 2 weeks and then colonies are counted under a microscope using the Image-Pro Plus software (v.4) program (Media Cybernetics, Silver Spring, Md.).
row,Structure (SMILES),anchorage-independent growth of HCT116 cells (colony formation)
1,O=C(/C=C/c1ccc2c(c1)OCO2)/C=C1/C(=O)Nc2ccc(F)cc21 [Compound 6],best efficiency
2,COc1cc(/C=C/C(=O)/C=C2/C(=O)Nc3ccccc32)ccc1O [Compound 8],best efficiency
3,COc1cc(/C=C/C(=O)/C=C2/C(=O)Nc3ccccc32)cc(OC)c1OC [Compound 5],best efficiency
4,O=C(/C=C/c1ccc2c(c1)OCO2)/C=C1/C(=O)Nc2ccc(Cl)cc21 [Compound 2],no effect
5,O=C(/C=C/c1ccc2c(c1)OCO2)/C=C1/C(=O)Nc2cccc(Cl)c21 [Compound 4],no effect
